How the values were obtained:
[1] = target: Sphingosine 1-phosphate receptor 2 (Homo sapiens, UniProt O95136); test: Binding affinity to S1PR2 (unknown origin) assessed as dissociation constant by surface plasmon resonance analysis
NCM460 = test: Cytotoxicity against human NCM460 cells assessed as reduction in cell viability incubated for 48 hrs in presence of 5-FU by MTT assay; format: functional, cell-based; settings: NCM460, 48 h
[2] = target: Sphingosine 1-phosphate receptor 1 (Homo sapiens, UniProt P21453); test: Binding affinity to S1PR1 (unknown origin) assessed as dissociation constant by surface plasmon resonance analysis
[3] = target: T1, Sphingosine 1-phosphate receptor 4 (Homo sapiens, UniProt O95977); test: Binding affinity to S1PR4 (unknown origin) assessed as dissociation constant by surface plasmon resonance analysis
T1 sequence (O95977 whole entry): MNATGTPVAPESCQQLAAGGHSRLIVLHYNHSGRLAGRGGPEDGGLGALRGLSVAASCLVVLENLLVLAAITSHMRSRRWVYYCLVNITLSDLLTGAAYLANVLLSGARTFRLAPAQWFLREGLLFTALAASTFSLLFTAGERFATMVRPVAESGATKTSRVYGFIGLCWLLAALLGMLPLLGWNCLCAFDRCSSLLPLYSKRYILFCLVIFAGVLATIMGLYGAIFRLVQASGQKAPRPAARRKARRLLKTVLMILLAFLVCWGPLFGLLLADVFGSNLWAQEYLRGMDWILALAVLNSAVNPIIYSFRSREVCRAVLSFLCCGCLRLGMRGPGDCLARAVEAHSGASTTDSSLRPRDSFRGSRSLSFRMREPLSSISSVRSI

HCT-116 [4] = test: Reversal of 5-FU resistance in human HCT-116 cells overexpressing DPD assessed as reduction in cell viability incubated for 48 hrs in presence of 5-FU by MTT assay; format: functional, cell-based; settings: HCT-116, 48 h; further: test concentration or dose not given here
SW620/5-FU [5] = test: Antiproliferative activity against human SW620/5-FU cells assessed as reduction in cell viability incubated for 48 hrs by MTT assay; format: functional, cell-based
[6] = target: Sphingosine 1-phosphate receptor 5 (Homo sapiens, UniProt Q9H228); test: Binding affinity to S1PR5 (unknown origin) assessed as dissociation constant by surface plasmon resonance analysis
[7] = Cytotoxicity against human NCM460 cells assessed as reduction in cell viability incubated for 48 hrs by MTT assay; format: toxicity, cell-based
[8] = target: Sphingosine 1-phosphate receptor 3 (Homo sapiens, UniProt Q99500); test: Binding affinity to S1PR3 (unknown origin) assessed as dissociation constant by surface plasmon resonance analysis
SW620/5-FU [9] = test: Reversal of 5-FU resistance in human SW620/5-FU cells assessed as reduction in cell viability incubated for 48 hrs in presence of 5-FU by MTT assay; format: functional, cell-based; further: test concentration or dose not given here
HT-29 [10] = test: Reversal of 5-FU resistance in human HT-29 cells assessed as reduction in cell viability incubated for 48 hrs in presence of 5-FU by MTT assay; format: functional, cell-based; settings: HT-29, 48 h; further: test concentration or dose not given here
HT-29 [11] = test: Antiproliferative activity against human HT-29 cells assessed as reduction in cell viability incubated for 48 hrs by MTT assay; format: functional, cell-based; settings: HT-29, 48 h
HCT-116 [12] = test: Antiproliferative activity against human HCT-116 cells overexpressing DPD assessed as reduction in cell viability incubated for 48 hrs by MTT assay; format: functional, cell-based; settings: HCT-116, 48 h

Sequence of Sphingosine 1-phosphate receptor 5 (Q9H228 whole entry): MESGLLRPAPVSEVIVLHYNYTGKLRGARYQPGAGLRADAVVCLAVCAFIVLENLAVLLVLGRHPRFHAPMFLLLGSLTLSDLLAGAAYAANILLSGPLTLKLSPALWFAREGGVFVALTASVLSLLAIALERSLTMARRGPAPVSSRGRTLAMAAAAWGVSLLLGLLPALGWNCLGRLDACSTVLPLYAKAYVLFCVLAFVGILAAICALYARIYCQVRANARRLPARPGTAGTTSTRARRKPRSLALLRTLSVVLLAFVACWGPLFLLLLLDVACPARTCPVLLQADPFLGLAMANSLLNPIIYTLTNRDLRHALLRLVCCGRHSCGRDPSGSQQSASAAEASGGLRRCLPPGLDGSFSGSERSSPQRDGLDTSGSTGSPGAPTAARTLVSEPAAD
Sequence of Sphingosine 1-phosphate receptor 2 (O95136 whole entry): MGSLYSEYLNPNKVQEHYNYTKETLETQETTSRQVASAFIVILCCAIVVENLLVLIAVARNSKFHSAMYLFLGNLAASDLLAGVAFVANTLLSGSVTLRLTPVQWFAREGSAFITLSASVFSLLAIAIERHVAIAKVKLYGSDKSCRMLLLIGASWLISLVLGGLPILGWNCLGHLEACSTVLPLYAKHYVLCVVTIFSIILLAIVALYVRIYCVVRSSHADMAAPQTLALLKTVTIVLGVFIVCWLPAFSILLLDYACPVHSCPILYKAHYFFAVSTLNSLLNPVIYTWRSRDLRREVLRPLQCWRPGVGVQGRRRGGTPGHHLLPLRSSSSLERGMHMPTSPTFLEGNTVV
Sequence of Sphingosine 1-phosphate receptor 1 (P21453 whole entry): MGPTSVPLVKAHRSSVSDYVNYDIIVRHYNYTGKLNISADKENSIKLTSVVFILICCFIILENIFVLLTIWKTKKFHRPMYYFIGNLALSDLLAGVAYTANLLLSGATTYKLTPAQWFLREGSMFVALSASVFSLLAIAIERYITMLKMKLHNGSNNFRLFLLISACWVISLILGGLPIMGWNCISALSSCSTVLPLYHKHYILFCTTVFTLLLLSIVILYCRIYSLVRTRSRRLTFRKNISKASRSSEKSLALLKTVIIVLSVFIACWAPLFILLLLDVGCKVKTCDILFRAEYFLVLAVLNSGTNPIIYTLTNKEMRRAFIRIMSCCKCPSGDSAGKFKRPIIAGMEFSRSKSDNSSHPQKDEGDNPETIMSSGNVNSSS
Sequence of Sphingosine 1-phosphate receptor 3 (Q99500 whole entry): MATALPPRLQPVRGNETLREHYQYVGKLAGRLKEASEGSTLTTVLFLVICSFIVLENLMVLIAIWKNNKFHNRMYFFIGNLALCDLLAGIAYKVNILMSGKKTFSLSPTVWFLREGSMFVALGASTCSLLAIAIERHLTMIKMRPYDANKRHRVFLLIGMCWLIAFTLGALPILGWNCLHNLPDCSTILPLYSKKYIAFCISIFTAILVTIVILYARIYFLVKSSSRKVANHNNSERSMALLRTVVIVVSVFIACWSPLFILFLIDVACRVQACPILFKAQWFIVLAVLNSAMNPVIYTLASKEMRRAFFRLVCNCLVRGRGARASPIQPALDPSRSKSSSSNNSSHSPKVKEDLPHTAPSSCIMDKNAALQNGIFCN

CCC(CC)CN1CCN(C(=O)Nc2cc(Oc3ccc(F)cc3)cc(Oc3ccc(C(=O)NC4CCCCC4)cc3)c2)CC1
Kd [1]: 12.7 nM

CCC(CC)CNC1CCN(C(=O)Nc2cc(Oc3ccncc3)cc(Oc3ccc(F)cc3)c2)CC1
IC50 (NCM460): > 100000 nM
Kd [2]: > 100 nM
Kd [3]: > 100 nM
IC50 (HCT-116 [4]): 2930 nM
IC50 (SW620/5-FU [5]): > 100000 nM
Kd [6]: > 100 nM
IC50 at 48 hrs [7]: > 100000 nM
Kd [8]: > 100 nM
IC50 (SW620/5-FU [9]): 3210 nM
IC50 (HT-29 [10]): > 100000 nM
Kd [1]: 0.63 nM
IC50 (HT-29 [11]): > 100000 nM
IC50 (HCT-116 [12]): > 100000 nM

CCNC(=O)c1ccc(Oc2cc(NC(=O)N3CCN(CC(CC)CC)CC3)cc(Oc3ccc(F)cc3)c2)cc1
Kd [1]: 7.23 nM

CCC(CC)CC1(O)CCN(C(=O)Nc2cc(Oc3ccc(F)cc3)cc(Oc3ccc(C(=O)NC)cc3)c2)CC1
Kd [1]: 4.15 nM

CNC(=O)c1ccc(Oc2cc(NC(=O)N3CCN(CC4CCCCC4)CC3)cc(Oc3ccc(F)cc3)c2)cc1
IC50 (NCM460): > 100000 nM
Kd [2]: > 100 nM
Kd [3]: > 100 nM
IC50 (HCT-116 [4]): 3160 nM
IC50 (SW620/5-FU [5]): > 100000 nM
Kd [6]: > 100 nM
IC50 at 48 hrs [7]: > 100000 nM
Kd [8]: > 100 nM
IC50 (SW620/5-FU [9]): 3650 nM
IC50 (HT-29 [10]): 3910 nM
Kd [1]: 0.49 nM
IC50 (HT-29 [11]): > 100000 nM
IC50 (HCT-116 [12]): > 100000 nM

CNC(=O)c1ccc(Oc2cc(NC(=O)N3CCC(O)(c4ccc(Cl)cc4)CC3)cc(Oc3ccc(F)cc3)c2)cc1
Kd [1]: 5.16 nM

CCC(CC)CN1CCN(C(=O)Nc2cc(Oc3ccc(F)cc3)cc(Oc3ccc(C(=O)N4CCCCC4)cc3)c2)CC1
Kd [1]: > 1000 nM

O=C(Nc1cc(Cl)nc(Cl)c1)Nc1cc(Cl)nc(Cl)c1
Kd [1]: 13.2 nM

CNC(=O)c1ccc(Oc2cc(NC(=O)N3CCN(C(=O)c4ccc5ccccc5c4)CC3)cc(Oc3ccc(F)cc3)c2)cc1
Kd [1]: 29.2 nM

CCC(CC)CN1CCCN(C(=O)Nc2cc(Oc3ccc(F)cc3)cc(Oc3ccc(C(=O)NC)cc3)c2)CC1
Kd [1]: > 1000 nM

CCC(CC)CN1CCN(C(=O)Nc2cc(Oc3ccc(F)cc3)cc(Oc3ccc(C(=O)N4CCN(C)CC4)cc3)c2)CC1
IC50 (NCM460): > 100000 nM
Kd [2]: > 100 nM
Kd [3]: > 100 nM
IC50 (HCT-116 [4]): 3960 nM
IC50 (SW620/5-FU [5]): > 100000 nM
Kd [6]: > 100 nM
IC50 at 48 hrs [7]: > 100000 nM
Kd [8]: > 100 nM
IC50 (SW620/5-FU [9]): 3560 nM
IC50 (HT-29 [10]): 5740 nM
Kd [1]: 0.69 nM
IC50 (HT-29 [11]): > 100000 nM
IC50 (HCT-116 [12]): > 100000 nM

CNC(=O)c1ccc(Oc2cc(NC(=O)N3CCN(c4ccc(C(F)(F)F)cc4)CC3)cc(Oc3ccc(F)cc3)c2)cc1
Kd [1]: > 1000 nM

CNC(=O)c1ccc(Oc2cc(NC(=O)N3CCN(Cc4ccc(F)cc4)CC3)cc(Oc3ccc(F)cc3)c2)cc1
Kd [1]: > 1000 nM

CNC(=O)c1ccc(Oc2cc(NC(=O)N3CCN(c4ccc(OC)cc4)CC3)cc(Oc3ccc(F)cc3)c2)cc1
Kd [1]: 21.5 nM

CCC(CC)CN1CCN(C(=O)Nc2cc(Oc3ccc(F)cc3)cc(Oc3ccc(C(=O)OC)cc3)c2)CC1
Kd [1]: > 1000 nM

CNC(=O)c1ccc(Oc2cc(NC(=O)N3CCN(c4cccc(OC)c4)CC3)cc(Oc3ccc(F)cc3)c2)cc1
Kd [1]: > 1000 nM

CCC(CC)CN1CCN(C(=O)Nc2cc(Oc3ccc(F)cc3)cc(Oc3ccc(C(=O)O)cc3)c2)CC1
IC50 (NCM460): > 100000 nM
Kd [2]: > 100 nM
Kd [3]: > 100 nM
IC50 (HCT-116 [4]): 2650 nM
IC50 (SW620/5-FU [5]): > 100000 nM
Kd [6]: > 100 nM
IC50 at 48 hrs [7]: > 100000 nM
Kd [8]: > 100 nM
IC50 (SW620/5-FU [9]): 2150 nM
IC50 (HT-29 [10]): 5130 nM
Kd [1]: 0.88 nM
IC50 (HT-29 [11]): > 100000 nM
IC50 (HCT-116 [12]): > 100000 nM

CCC(CC)CC1(O)CCN(C(=O)Nc2cc(Oc3ccc(F)cc3)cc(Oc3ccc(C(=O)N(C)C)cc3)c2)CC1
Kd [1]: 6.62 nM

O=C(Nc1cc(Oc2ccncc2)cc(Oc2ccc(F)cc2)c1)N1CCC(O)(c2ccc(Cl)cc2)CC1
Kd [1]: 66.9 nM

CNC(=O)c1ccc(Oc2cc(NC(=O)N3CCN(C(=O)c4ccc(F)cc4)CC3)cc(Oc3ccc(F)cc3)c2)cc1
Kd [1]: 94.3 nM

Reference: ChEMBL document CHEMBL5096216, “Rational Design, Synthesis, and Biological Evaluation of Novel S1PR2 Antagonists for Reversing 5-FU-Resistance in Colorectal Cancer” (J Med Chem, 2022)
